Measured values: patent publication US11149066B2, “Thrombospondin 1-binding peptide” (DAIICHI SANKYO COMPANY, LIMITED, priority 2016, dated 2021)
pIC50: −log10 of the molar value. Where two headings read alike, the source gives them in different places. Positions of bridges follow the written chain, without caps; N, C: chain ends. Non-standard residues stand in square brackets, D forms with d. Residues, ends and D or L forms follow the SMILES beside them. Phe(4-CH2NH2) = NCc1ccc(C[C@H](N)C(=O)O)cc1; 2Nal = N[C@@H](Cc1ccc2ccccc2c1)C(=O)O; Met(O2) = CS(=O)(=O)CC[C@H](N)C(=O)O; His(π-Me) = Cn1cncc1C[C@H](N)C(=O)O; hCit = NC(=O)NCCCC[C@H](N)C(=O)O; hPhe = N[C@@H](CCc1ccccc1)C(=O)O; Phg = N[C@H](C(=O)O)c1ccccc1; Tle = CC(C)(C)[C@H](N)C(=O)O; hCys = N[C@@H](CCS)C(=O)O; Nle = CCCC[C@H](N)C(=O)O

Molecular target: human TSP1 (Homo sapiens, UniProt P07996)
Sequence (P07996 19-1170 limits assumed): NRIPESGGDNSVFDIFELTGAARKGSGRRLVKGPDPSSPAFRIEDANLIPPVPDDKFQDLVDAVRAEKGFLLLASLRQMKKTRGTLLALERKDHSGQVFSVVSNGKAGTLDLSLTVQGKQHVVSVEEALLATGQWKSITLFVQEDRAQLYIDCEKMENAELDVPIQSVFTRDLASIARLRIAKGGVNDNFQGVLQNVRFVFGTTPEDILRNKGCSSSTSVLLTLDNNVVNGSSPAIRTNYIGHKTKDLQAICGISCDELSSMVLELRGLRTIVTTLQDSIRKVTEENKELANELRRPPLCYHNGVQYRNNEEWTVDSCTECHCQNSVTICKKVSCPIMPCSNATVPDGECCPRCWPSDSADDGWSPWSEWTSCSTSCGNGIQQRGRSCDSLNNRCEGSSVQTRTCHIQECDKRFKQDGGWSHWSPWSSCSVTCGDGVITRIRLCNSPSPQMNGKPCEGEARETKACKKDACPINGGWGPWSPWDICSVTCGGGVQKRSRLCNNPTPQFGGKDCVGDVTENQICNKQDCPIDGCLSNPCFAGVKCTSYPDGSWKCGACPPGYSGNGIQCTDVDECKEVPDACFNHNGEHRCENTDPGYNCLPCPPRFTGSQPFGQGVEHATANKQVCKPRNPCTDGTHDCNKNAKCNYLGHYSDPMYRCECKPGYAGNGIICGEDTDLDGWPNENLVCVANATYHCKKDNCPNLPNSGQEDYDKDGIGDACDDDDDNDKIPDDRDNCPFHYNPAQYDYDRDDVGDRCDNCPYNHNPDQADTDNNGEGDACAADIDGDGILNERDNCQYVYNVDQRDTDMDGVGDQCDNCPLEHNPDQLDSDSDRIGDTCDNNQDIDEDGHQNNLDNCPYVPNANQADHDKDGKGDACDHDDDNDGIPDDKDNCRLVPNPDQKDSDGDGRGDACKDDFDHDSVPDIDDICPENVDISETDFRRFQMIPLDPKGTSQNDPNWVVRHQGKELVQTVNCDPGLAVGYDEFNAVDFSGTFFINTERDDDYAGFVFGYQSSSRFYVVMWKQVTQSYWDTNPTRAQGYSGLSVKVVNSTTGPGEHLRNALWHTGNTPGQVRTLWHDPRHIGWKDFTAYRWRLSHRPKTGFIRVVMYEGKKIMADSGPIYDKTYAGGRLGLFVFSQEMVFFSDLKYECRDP
Assay: Cell adhesion inhibition assay (HUVEC adhesion to TSP1-coated plate)
Type: cell-based
Description: As referred to herein, the TSP1 inhibitory activity refers to the activity to inhibit one or more effects of TSP1, including angiostatic effect. The TSP1 inhibitory activity is measured by a cell adhesion inhibition assay using human TSP1 and vascular endothelial cells as described hereinbelow in the Examples section. In this assay, when the 50% inhibitory concentration (IC5O) of a test substance is 200 nM or less, the test substance is determined to have TSP1 inhibitory activity.
(Test Example 1) Cell Adhesion Inhibition Assay
I. Materials and Reagents
96 well Non-treated White with clear bottom (Coster, 3632)
BrightMax adhesive sealing films (EXCEL Scientific, WT50)
Proteosave®SS 15 mL (Sumitomo Bakelite, MS-52150)
Thrombospondin human platelet (Calbiochem, 605225)
EGM-2 MV (Lonza, CC-3202): for HUVEC passaging
Collagen coated dish (IWAKI, 4020-010): for HUVEC passaging
Lipidure®-BL802 (NOF Corporation), 5% solution
Albumin solution (35%) fraction V from Bovine (Sigma, A7979)
CellTiter-Glo (Promega, G7572)
Thrombospondin 1 vial (25 μg) was dissolved in TBS (+2 mM CaCl2; the same shall apply hereunder) to make a 200 μg/mL solution, which was diluted with TBS to a concentration of 10 μg/mL in Proteosave® 15 mL tube. The 10 μg/mL solution was dispensed into a 96 well plate at a volume of 50 μL/well (no reservoir was used since the protein easily adsorbs on it), and the plate was left to stand at 4° C. overnight.
Lipidure® was diluted 10-fold with TBS to make a 0.5% solution. After a buffer was discarded from the plate that had been coated at the step of <Plate coat> as described above, the 0.5% solution was dispensed into all wells to be used at a volume of 100 μL/well, and the plate was left to stand at room temperature for 1 hour.
A 0.2 μM solution of each sample was prepared using a dilution buffer (DMEM+0.5% BSA). 2 μL of the 0.2 μM solution was diluted with 500 μL, of dilution buffer to prepare a diluted sample. As a vehicle control, DMSO was diluted in the same way as the samples.
A blocking solution was discarded from the plate that had been treated at the step of <Plate blocking> as described above, and the plate was washed three times with 150 μL/well of TBS. The washing solution used for the third washing was completely sucked out by an aspirator, and the diluted sample was dispensed into the plate at a volume of 50 μL/well. Then, the plate was left to stand at room temperature for 15 to 30 minutes.
To maintain HUVECs, EGM2-MV and a collagen coated dish were used (the cells were ceased to be used after 10th or 1 lth passage since the cell proliferation rate declined at this stage). The cells were dispersed with 0.05% Trypsin/EDTA, harvested in DMEM/0.5% BSA, and centrifuged at 1000 rpm for 3 minutes. After removal of supernatant, the cells were washed once with a DMEM buffer. The cells were resuspended in a DMEM buffer, counted for cell number, and diluted to 10000 cells/50 μL. The cell suspension was dispensed at a volume of 50 μL/well into the plate into which the sample had been dispensed, mixed gently, and incubated at 37° C. for 2.5 hours.
After cell adhesion was confirmed, the culture medium was completely removed by an aspirator, and 100 μL/well of DMEM/0.5% BSA was gently dispensed. Then, DMEM/0.5% BSA was completely removed by an aspirator, and 50 μL/well of DMEM/0.5% BSA was dispensed. After a white seal was applied to the bottom of the plate, 50 μL/well of CellTiter-Glo® was dispensed, and the solution was stirred for 2 minutes and left to stand at room temperature for 8 minutes. […] was detected using EnVision Xcite Multilabel Reader (produced by Perkin Elmer).
On the basis of the measured fluorescence values, the IC50 values (nM) of the different macrocyclic polypeptides for inhibition of cell adhesion were calculated.

[1] = HUVEC adhesion to human platelet thrombospondin-coated plate, 2.5 hours, CellTiter-Glo, read-out: Cell adhesion IC50

| Compound | pIC50 [1] | pIC50 (HUVEC adhesion to TSP1-coated plate, read-out: cell adhesion inhibition (Table 4)) |
| --- | --- | --- |
| CC[C@H](C)[C@@H]1NC(=O)[C@H](Cc2ccc3ccccc3c2)NC(=O)CSC[C@@H](C(N)=O)NC(=O)[C@H](CCc2ccccc2)NC(=O)[C@H](Cc2c[nH]c3ccccc23)NC(=O)[C@H](CCCCN)NC(=O)[C@H](C(C)C)NC(=O)[C@H](Cc2c[nH]c3ccccc23)NC(=O)[C@H](CC(N)=O)NC(=O)[C@H](CCCNC(=N)N)NC(=O)CNC(=O)[C@H](CO)NC1=O [Compound 37] ({CH2CO}-[2Nal]ISGRNWVKW[hPhe]C-NH2; thioether N-12) | 7.71 |  |
| CCCC[C@@H]1NC(=O)[C@H](Cc2c[nH]c3ccccc23)NC(=O)[C@H](CC(N)=O)NC(=O)[C@H](CCCNC(=N)N)NC(=O)CNC(=O)[C@H](CO)NC(=O)[C@H]([C@@H](C)CC)NC(=O)[C@H](Cc2ccc3ccccc3c2)NC(=O)CSC[C@@H](C(N)=O)NC(=O)[C@H](C(C)C)NC(=O)[C@H](Cc2c[nH]c3ccccc23)NC(=O)[C@H](CCCCN)NC1=O [Compound 38] ({CH2CO}-[2Nal]ISGRNW[Nle]KWVC-NH2; thioether N-12) | 8.04 |  |
| CC[C@H](C)[C@@H]1NC(=O)[C@H](Cc2ccccc2)NC(=O)CSC[C@@H](C(N)=O)NC(=O)[C@H](C(C)C)NC(=O)[C@H](Cc2c[nH]c3ccccc23)NC(=O)[C@H](Cc2cncn2C)NC(=O)[C@H](C(C)C)NC(=O)[C@H](Cc2c[nH]c3ccccc23)NC(=O)[C@H](CC(N)=O)NC(=O)[C@H](CCCNC(=N)N)NC(=O)CNC(=O)[C@H](CO)NC1=O [Compound 46] ({CH2CO}-FISGRNWV[His(π-Me)]WVC-NH2; thioether N-12) | 7.52 |  |
| CC[C@H](C)[C@@H]1NC(=O)[C@H](Cc2ccccc2)NC(=O)CSC[C@@H](C(N)=O)NC(=O)[C@H](C(C)C)NC(=O)[C@H](Cc2c[nH]c3ccccc23)NC(=O)[C@H](Cc2ccc(CN)cc2)NC(=O)[C@H](C(C)C)NC(=O)[C@H](Cc2c[nH]c3ccccc23)NC(=O)[C@H](CC(N)=O)NC(=O)[C@H](CCCNC(=N)N)NC(=O)CNC(=O)[C@H](CO)NC1=O [Compound 47] ({CH2CO}-FISGRNWV[Phe(4-CH2NH2)]WVC-NH2; thioether N-12) | 7.78 |  |
| CC(C)[C@@H]1NC(=O)[C@H](Cc2c[nH]c3ccccc23)NC(=O)[C@H](CCCCN)NC(=O)[C@H](C(C)C)NC(=O)[C@H](Cc2c[nH]c3ccccc23)NC(=O)[C@H](CC(N)=O)NC(=O)[C@H](CCCNC(=N)N)NC(=O)CNC(=O)[C@H](CO)NC(=O)[C@H](c2ccccc2)NC(=O)[C@H](Cc2ccc3ccccc3c2)NC(=O)CSC[C@@H](C(N)=O)NC1=O [Compound 49] ({CH2CO}-[2Nal][Phg]SGRNWVKWVC-NH2; thioether N-12) | 7.94 |  |
| CC[C@H](C)[C@@H]1NC(=O)[C@H](Cc2ccc3ccccc3c2)NC(=O)CSC[C@@H](C(N)=O)NC(=O)[C@H](C(C)(C)C)NC(=O)[C@H](Cc2c[nH]c3ccccc23)NC(=O)[C@H](CCCCN)NC(=O)[C@H](C(C)C)NC(=O)[C@H](Cc2c[nH]c3ccccc23)NC(=O)[C@H](CC(N)=O)NC(=O)[C@H](CCCNC(=N)N)NC(=O)CNC(=O)[C@H](CO)NC1=O [Compound 53] ({CH2CO}-[2Nal]ISGRNWVKW[Tle]C-NH2; thioether N-12) | 7.80 |  |
| CC[C@H](C)[C@@H]1NC(=O)[C@H](Cc2ccc3ccccc3c2)NC(=O)CSCC[C@@H](C(N)=O)NC(=O)[C@H](C(C)C)NC(=O)[C@H](Cc2c[nH]c3ccccc23)NC(=O)[C@H](CCCCN)NC(=O)[C@H](C(C)C)NC(=O)[C@H](Cc2c[nH]c3ccccc23)NC(=O)[C@H](CC(N)=O)NC(=O)[C@H](CCCNC(=N)N)NC(=O)CNC(=O)[C@H](CO)NC1=O [Compound 54] ({CH2CO}-[2Nal]ISGRNWVKWV[hCys]-NH2; thioether N-12) | 7.71 |  |
| CCCC[C@@H]1NC(=O)[C@H](Cc2c[nH]c3ccccc23)NC(=O)[C@H](CC(=O)O)NC(=O)[C@H](CCCCN)NC(=O)CNC(=O)[C@H](CO)NC(=O)[C@H]([C@@H](C)CC)NC(=O)[C@H](Cc2ccc3ccccc3c2)NC(=O)CSC[C@@H](C(N)=O)NC(=O)[C@H](C(C)C)NC(=O)[C@H](Cc2c[nH]c3ccccc23)NC(=O)[C@H](CCCCN)NC1=O [Compound 57] ({CH2CO}-[2Nal]ISGKDW[Nle]KWVC-NH2; thioether N-12) | 7.81 |  |
| CCCC[C@@H]1NC(=O)[C@H](Cc2c[nH]c3ccccc23)NC(=O)[C@H](CC(N)=O)NC(=O)[C@H](Cc2c[nH]cn2)NC(=O)CNC(=O)[C@H](CO)NC(=O)[C@H]([C@@H](C)CC)NC(=O)[C@H](Cc2ccc3ccccc3c2)NC(=O)CSC[C@@H](C(N)=O)NC(=O)[C@H](C(C)C)NC(=O)[C@H](Cc2c[nH]c3ccccc23)NC(=O)[C@H](CCCCN)NC1=O [Compound 59] ({CH2CO}-[2Nal]ISGHNW[Nle]KWVC-NH2; thioether N-12) | 7.68 |  |
| CCCC[C@@H]1NC(=O)[C@H](Cc2c[nH]c3ccccc23)NC(=O)[C@H](CC(=O)O)NC(=O)[C@@H]2CCCN2C(=O)CNC(=O)[C@H](CO)NC(=O)[C@H]([C@@H](C)CC)NC(=O)[C@H](Cc2ccc3ccccc3c2)NC(=O)CSC[C@@H](C(N)=O)NC(=O)[C@H](C(C)C)NC(=O)[C@H](Cc2c[nH]c3ccccc23)NC(=O)[C@H](CCCCN)NC1=O [Compound 68] ({CH2CO}-[2Nal]ISGPDW[Nle]KWVC-NH2; thioether N-12) | 7.55 |  |

Second part, the compound after the results:

| pIC50 [1] | pIC50 (HUVEC adhesion to TSP1-coated plate, read-out: cell adhesion inhibition (Table 4)) | Compound |
| --- | --- | --- |
| 7.77 |  | CCCC[C@@H]1NC(=O)[C@H](Cc2c[nH]c3ccccc23)NC(=O)[C@H](CC(=O)O)NC(=O)[C@H](CCS(C)(=O)=O)NC(=O)CNC(=O)[C@H](CO)NC(=O)[C@H]([C@@H](C)CC)NC(=O)[C@H](Cc2ccc3ccccc3c2)NC(=O)CSC[C@@H](C(N)=O)NC(=O)[C@H](C(C)C)NC(=O)[C@H](Cc2c[nH]c3ccccc23)NC(=O)[C@H](CCCCN)NC1=O [Compound 71] ({CH2CO}-[2Nal]ISG[Met(O2)]DW[Nle]KWVC-NH2; thioether N-12) |
| 7.68 |  | CCCC[C@@H]1NC(=O)[C@H](Cc2c[nH]c3ccccc23)NC(=O)[C@H](CC(=O)O)NC(=O)[C@H](CCCCNC(N)=O)NC(=O)CNC(=O)[C@H](CO)NC(=O)[C@H]([C@@H](C)CC)NC(=O)[C@H](Cc2ccc3ccccc3c2)NC(=O)CSC[C@@H](C(N)=O)NC(=O)[C@H](C(C)C)NC(=O)[C@H](Cc2c[nH]c3ccccc23)NC(=O)[C@H](CCCCN)NC1=O [Compound 74] ({CH2CO}-[2Nal]ISG[hCit]DW[Nle]KWVC-NH2; thioether N-12) |
| 7.79 |  | CCCC[C@@H]1NC(=O)[C@H](Cc2c[nH]c3ccccc23)NC(=O)[C@H](CC(=O)O)NC(=O)[C@H](CCCNC(=N)N)NC(=O)CNC(=O)[C@H](CO)NC(=O)[C@H]([C@@H](C)CC)NC(=O)[C@H](Cc2ccc3ccccc3c2)NC(=O)CNC(=O)CSC[C@@H](C(N)=O)NC(=O)[C@H](C(C)C)NC(=O)[C@H](Cc2c[nH]c3ccccc23)NC(=O)[C@H](CCCCN)NC1=O [Compound 75] ({CH2CO}-G[2Nal]ISGRDW[Nle]KWVC-NH2; thioether N-13) |
|  | 7.94 | CCCC[C@@H]1NC(=O)[C@H](Cc2c[nH]c3ccccc23)NC(=O)[C@H](CC(=O)O)NC(=O)[C@H](CCCNC(=N)N)NC(=O)CNC(=O)[C@H](CO)NC(=O)[C@H]([C@@H](C)CC)NC(=O)[C@H](Cc2ccc3ccccc3c2)NC(=O)[C@H](C)NC(=O)CSC[C@@H](C(N)=O)NC(=O)[C@H](C(C)C)NC(=O)[C@H](Cc2c[nH]c3ccccc23)NC(=O)[C@H](CCCCN)NC1=O [Compound 80] ({CH2CO}-A[2Nal]ISGRDW[Nle]KWVC-NH2; thioether N-13) |
